pKi: −log10 of the molar value.
Experiments:
[1] = target: Carbonic anhydrase 1 (Homo sapiens, UniProt P00915); experiment: Esterase Activity Assay; settings: pH 7.4; 25 °C
[2] = target: Carbonic anhydrase 2 (Homo sapiens, UniProt P00918); experiment: Esterase Activity Assay; settings: pH 7.4; 25 °C

Chain of Carbonic anhydrase 1 (P00915 whole entry): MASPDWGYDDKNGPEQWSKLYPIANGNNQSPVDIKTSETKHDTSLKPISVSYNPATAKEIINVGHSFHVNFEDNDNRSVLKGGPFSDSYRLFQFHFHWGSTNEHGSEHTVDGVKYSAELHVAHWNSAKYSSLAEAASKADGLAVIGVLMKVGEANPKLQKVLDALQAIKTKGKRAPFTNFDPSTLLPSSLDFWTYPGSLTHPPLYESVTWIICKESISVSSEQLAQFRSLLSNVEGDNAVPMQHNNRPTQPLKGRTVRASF

Compound	pKi [1]	pKi [2]
O=c1oc2c(O)c(O)cc3c(=O)oc4c(O)c(O)cc1c4c23 [Elagic Acid]	3.68	
O=C(O)c1cc(O)c(O)c(O)c1 [Gallic Acid, F]	2.98	3.12
O=c1c(O)c(-c2ccc(O)c(O)c2)oc2cc(O)cc(O)c12 [2-(3,4-dihydroxyphenyl)-3,5,7-trihydroxy-chromone;hydrate]	4.00	3.98

Second part, the molecule after the results:

pKi [1]	pKi [2]	Compound
3.36	3.27	O=C(O)/C=C/c1ccc(O)cc1 [p-Coumaric Acid]
2.97		O=C(O)c1ccc(O)cc1 [4-Hydroxybenzoate, III]
3.04	3.16	COc1cc(C(=O)O)cc(OC)c1O [Syringic acid]
3.39	3.68	COc1cc(/C=C/C(=O)O)ccc1O [Ferulic acid (M5)]
